Results as given in patent US20230201267A1, “RETINAL PIGMENTED EPITHELIUM AND PHOTORECEPTOR DUAL CELL AGGREGATES AND METHODS OF USE THEREOF” (FUJIFILM Cellular Dynamics, Inc., priority 2020, published 2023).

Columns and labels:
[1] = tested on: RPE and PRP dual cell aggregates; assay: Dual cell aggregate formation in thaw medium with or without Y-27632 (phase contrast); type: cell-based, human; settings: Y-27632 in thaw medium (RPE-MM), 1 RPE:8 PRP, compared with thaw without Y-27632
Protocol: (§1) To characterize a dual cell aggregate culture, RPE were thawed in RPE-MM and PRP were thawed in RMN. If PRP were thawed as aggregates, either all aggregates or a sample of aggregates were TrypLE dissociated. Both cell types were counted using a ViCELL XR. RPE and PRP were combined at a desired cell ratio and cell number in RPE-MM and placed in a ULA T-75 flask on a belly dancer at 16-18 RPM to permit aggregate formation. Alternately, aggregates could be formed in a PBS mini vessel. To test in vivo function, some aggregates were transplanted into the subretinal space of a rat retina two days after aggregate formation. Surgery was performed to analyze the retinas. Aggregates or rat retinas were cryosectioned and analyzed by immunocytochemistry.
Dual cell aggregate formation without Y-27632 in thaw medium: As a first attempt to co-culture RPE and PRP as aggregates, RPE and PRP were thawed as single cells at a ratio of 1 RPE:3 PRP. Phase contrast images were captured at various time points (FIG. 1). […] However, after 21 and 69 days, aggregates had formed and appeared to be fairly regular, though skewed to a high RPE ratio, relative to PRP. Based on this experiment, all future experiments used the ROCK inhibitor Y-27632 when thawing RPE and maintained a lower RPE:PRP ratio. […]

[2] = tested on: RPE and PRP dual cell aggregates; assay: Effect of PGE-2 on long-term dual cell aggregate culture (immunocytochemistry); type: cell-based, human; settings: with vs without PGE2
Protocol: as §1
Effect of PGE-2 on long-term dual cell aggregate culture: During RPE culture, Prostaglandin E2 (PGE-2) is added to the culture medium from day 54 to day 68 of differentiation. PGE-2 is a hormone that stimulates RPE primary cilia formation and polarization, and its effect was tested on the dual cell aggregates (FIGS. 3-5). With this formulation of RPE and PRP, RPE generally appeared to form a majority of the aggregate, even after one month of culture. PRP did appear to mature after two months, indicated by the presence of PRPH2, an outer segment marker.

| Structure (SMILES) | aggregate formation efficiency [1] | PRP organization in dual cell aggregates ([2]; one month after aggregate formation, initial ratio 1 RPE:8 PRP) | RPE organization or rod formation in dual cell aggregates ([2]; one month of culture) |
| --- | --- | --- | --- |
| C[C@@H](N)[C@H]1CC[C@H](C(=O)Nc2ccncc2)CC1 [Condition Y-27632] | qualitatively more efficient | – | – |
| CCCCC[C@H](O)/C=C/[C@H]1[C@H](O)CC(=O)[C@@H]1C/C=C\CCCC(=O)O [PGE2, Prostaglandin E2] | – | Differences in PRP organization were apparent | did not show striking differences |
